Results reported in patent US20240284907A1, “NOVEL DERIVATIVES OF NON-CODED AMINO ACIDS AND THEIR USE AS HERBICIDES” (FortePhest LTD., priority 2021, published 2024).

Experiments:
Type in all cases: in vivo
[1] = tested on: Seeds of Lettuce R. (Super-Jericho); assay: Filter paper bioassay with lettuce seeds: germination, Fully Effective Concentration (FEC); conditions: lowest concentration mostly preventing lettuce seed germination, assessed after 6 days
Excerpt: Materials: Seeds of Lettuce R. (Super-Jericho, non-sterilized) were obtained from Ben Shahar Moshe Ltd., 99% purity. The test compounds listed in the Table 2 below were synthetized de novo or purchased from different vendors.
Filter Paper Bioassays with Lettuce seeds: The protocol is following Bertin et al. 2009 and Movellan et al. 2014 with specified modifications as described below.
Seeds were placed on Whatman no. 1 filter paper (Whatman, Middlesex, U.K.) in Petri dishes (10 seeds per plate) with 2.0 ml of aqueous solution of a test material in concentration ranged from 0 (control) to 1 mmol/l were placed in a tray tilted at 45°. The trays were kept in dark for 48 hours and then transferred to the growth chamber with 6/18 dark/light cycle for 4 days. Each experiment was performed at least with two repeats.
The development of plants' radicle and shoots were visually assessed 6 days after the beginning of the test to determine Fully Effective Concentration (FEC) of a test material. In the context of the invention, FED is defined as the lowest concentration level of a test material that mostly preventing seeds germination.

[2] = tested on: Seeds of Lettuce R. (Super-Jericho); assay: Filter paper bioassay with lettuce seeds: germination and early plant development, Minimal Effective Concentration (MEC); conditions: lettuce seeds on filter paper, 0 to 1 mmol/l, visually assessed after 6 days
Outline: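 Visual scoring on day 6 of radicle and shoot growth gives the MEC, the lowest dose deviating from control (no germination or malformation). Seeds (lettuce Super-Jericho, 10 per plate) sat on filter paper with 0–1 mmol/l aqueous compound, 48 h dark then 4 days 6/18 dark/light, in at least two repeats.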

[3] = tested on: Romaine lettuce (Lactuca sativa L.) plants; assay: Post-emergence herbicidal activity on potted Romaine lettuce plants (soil or foliar application); conditions: lettuce at 2 to 3 leaves, two weeks after treatment
Description: The tests were performed on Romaine lettuce (Lactuca sativa L.) plants at the stage 2 to 3 leaves. The plants were grown in mini-pots packed with soil, dimensions 2×2×5 cm, one plant per mini-pot. Test compounds were dissolved in 0.1% aqueous solution water solution of Silwet adjuvant to final concentrations ranging from 0 (Control) to 0.0001%. The test compounds were applied on soil (1 ml per pot) or foliar with airbrush (0.1 ml per pot). Each concentration was tested on 20 plants. Two weeks after the treatment the herbicidal effects of the respective test material were visually evaluated (aboveground part and roots. Then the aboveground part of the plants was neatly cut and weighed (wet weight) to assess the growth inhibition caused by the test compound. The growth inhibition (GI) was calculated as following: […]
Where Mt and Mc are median wet weight of treated and control plants, respectively. In the context of the invention, the herbicidal effect was assessed by concentration of the compound causing more than 85% of Growth Inhibition (GI) or irreversible damage of the plants (Table 3). Herbicidal activity of selected DHAAs is summarized in Table 4 (soil application) and Table 5 (Foliar application).

Molecule	FEC (Fully Effective Concentration) [1]	Score (activity score of Minimal Effective Concentration, MEC) [2]	Score (test material causing more than 85% of Growth Inhibition or irreversible plant damage) ([3]; foliar application)	Score (test material causing more than 85% of Growth Inhibition or irreversible plant damage) ([3]; soil application)
2,2-difluoro-2-[5-(trifluoromethyl)-1,3-thiazol-2-yl]acetic acid [compound 5710]	0.100 mM	Strong (0.01 mM)	–	–
2,2-difluoro[2-(trifluoromethyl)-1,3-thiazol-5-yl]acetic acid [compound 5700]	2.000 mM	Moderate (0.1 mM)	–	–
2,5,8,11,14-pentaoxahexadecan-16-yl 2-(2-chloro-1,3-thiazol-4-yl)-2,2-difluoroacetate [compound 5778]	5.000 mM	very strong	moderate (0.5)	–
2-(2,5-dichlorothiophen-3-yl)-2,2-difluoroacetamide [compound 5636]	0.100 mM	Strong (0.01 mM)	–	–
2-chloro-4-(2-hydrazinylethyl)-1,3-thiazole [compound 5702]	2.000 mM	Moderate (0.1 mM)	–	–
2-oxo-2-(pyridin-2-yl)ethyl(2-chloro-1,3-thiazol-4-yl)(difluoro)acetate [compound 5740]	0.050 mM	very strong	–	–
2-oxo-2-phenylethyl(2-chloro-1,3-thiazol-4-yl)(difluoro)acetate [compound 5741]	0.050 mM	very strong	–	–
3-(2,5-dichlorothiophen-3-yl)-2-oxopropanoic acid [compound 5612]	0.100 mM	Strong (0.01 mM)	–	–
NC(=O)Cc1cc(Cl)sc1Cl [compound 5609, 2-(2,5-dichlorothiophen-3-yl)acetamide]	1.000 mM	Strong (0.01 mM)	–	–
O=C(O)/C=C/c1sc(Cl)nc1Cl [compound 5622, (2E)-3-(2,4-dichloro-1,3-thiazol-5-yl)prop-2-enoic acid]	1.000 mM	Moderate (0.1 mM)	–	–
O=C(O)CNC(=O)C(F)(F)c1cc(Cl)sc1Cl [compound 5644, [2-(2,5-dichlorothiophen-3-yl)(difluoro)acetamido]acetic acid]	1.000 mM	Strong (0.01 mM)	–	–
NCCCCc1cc(Cl)sc1Cl [compound 5657, 4-(2,5-dichlorothiophen-3-yl)butan-1-amine]	0.100 mM	Moderate (0.1 mM)	–	–
Cc1sc(C(F)(F)F)nc1C(F)(F)C(=O)O [compound 5717, 2,2-difluoro-2-[5-methyl-2-(trifluoromethyl)-1,3-thiazol-4-yl]acetic acid]	0.100 mM	Strong (0.01 mM)	–	–
O=C(O)C(F)(F)c1nc(Cl)sc1F [compound 5751, (2-chloro-5-fluoro-1,3-thiazol-4-yl)(difluoro)acetic acid]	0.100 mM	strong.strong	–	–
O=C(Cc1ccc(Br)cc1)C(F)(F)c1csc(Cl)n1 [compound 5756, 3-(4-bromophenyl)-1-(2-chloro-1,3-thiazol-4-yl)-1,1-difluoropropan-2-one]	0.010 mM	very strong	–	–
O=C(Cc1csc(Cl)n1)OCc1ccccc1 [compound 5758, benzyl 2-(2-chloro-1,3-thiazol-4-yl)acetate]	0.100 mM	Strong (0.01 mM)	–	–
O=C(OCc1ccccc1)C(F)(F)c1csc(Cl)n1 [compound 5762, benzyl (2-chloro-1,3-thiazol-4-yl)(difluoro)acetate]	0.010 mM	very strong	–	–
NC(N)=NCCc1cc(Cl)sc1Cl [compound 5769, N″-[2-(2,5-dichlorothiophen-3-yl)ethyl]guanidine]	0.100 mM	Strong (0.01 mM)	–	–
N#Cc1cscc1C(F)(F)C(=O)O [compound 5779, (4-cyanothiophen-3-yl)(difluoro)acetic acid]	1.000 mM	Strong (0.01 mM)	–	–
CCOC(=O)C(F)(F)c1csc(C(F)(F)F)n1 [compound 5781]	–	Strong (0.01 mM)	strong (0.01 to 0.05)	–
O=C(O)/C(F)=C(\F)c1ccc(Br)nc1 [compound 6638, (2E)-3-(6-bromopyridin-3-yl)-2,3-difluoroprop-2-enoic acid]	–	Moderate (0.1 mM)	–	moderate (0.5)
O=C(O)C(F)(F)c1cccc(Cl)n1 [compound 6667, (6-chloropyridin-2-yl)(difluoro)acetic acid]	–	Strong (0.01 mM)	–	strong (0.01 to 0.05)
(2-bromopyridin-4-yl)acetic acid [compound 678]	–	Strong (0.01 mM)	–	weak (1.0)
(2E)-3-(2-bromopyridin-4-yl)-N-(4-hydroxyphenyl)prop-2-enamide [compound 6610]	–	Moderate (0.1 mM)	–	moderate (0.5)
(4-bromophenyl)methyl(2,5-dichlorothiophen-3-yl)acetate [compound 5735]	0.500 mM	strong.strong	–	–
[6-chloro-5-(trifluoromethyl)pyridin-2-yl](difluoro)acetic acid [compound 6671]	–	Strong (0.01 mM)	–	strong (0.01 to 0.05)
benzyl (6-bromopyridin-2-yl)(difluoro)acetate [compound 6646]	–	Strong (0.01 mM)	–	strong (0.01 to 0.05)
difluoro(6-fluoropyridin-2-yl)acetic acid [compound 6664]	–	Strong (0.01 mM)	–	strong (0.01 to 0.05)
ethyl 2-(2-bromo-1,3-thiazol-4-yl)acetate [compound 5663]	–	Moderate (0.1 mM)	strong (0.01 to 0.05)	moderate (0.5)
ethyl 2-(2-chloro-1,3-thiazol-4-yl)-2,2-difluoroacetate [compound 5784]	0.050 mM	very strong	–	–
